This is an account of results in patent US11814416B2, “Polypeptide capable of passing through blood-brain barrier” (SHENZHEN RUIJIAN […] COMPANY, priority 2018, dated 2023).

This assay deals with CaV2.2 channels (α1B, α2δ1 and β3). The assay is classed as cell-based, Rat. The conditions noted are these: for IC50: read-out: half inhibitory concentration for inhibition of CaV2.2 channel.

Like-named read-outs stand apart in the source and are kept apart here.

Regarding “CKGKGAKCSRLMYDCCTGSCRSGKCGGYGRKKRRQRRR [MVIIA-c]”, the IC50 stood at 237 nM. The “reduction of the peak Ca2+ current” value (1 μM) is reported as 98.81±0.427%.
The corresponding values for “CKGKGAKCSRLMYDCCTGSCRSGKCGGGYGRKKRRQRRR [MVIIA-d]” are 345 nM and 84.26±3.127%.
As for “CKGKGAKCSRLMYDCCTGSCRSGKCGYGRKKRRQRRR [MVIIA-b]”, the “reduction of the peak Ca2+ current” value was 91.70±1.477% and the IC50 amounted to 379 nM.
In the case of “CKGKGAKCSRLMYDCCTGSCRSGKCYGRKKRRQRRR [MVIIA-a]”, the IC50 turned out to be 413 nM. Moreover, for the setting “1 μM”, the “reduction of the peak Ca2+ current” value is reported as 89.45±0.752%.
